Measured values from patent US8692023B2, “Sugar metabolism improving composition, and pharmaceutical preparation containing said composition” (Erina Co., Inc., priority 2010, dated 2014).

Key:
[1] = system: L6 myotube cells; assay: Glucose intake by L6 myotube cells (decrease of glucose in culture solution); type: cell-based, rat; settings: nepodin 10 to 40 μM, 4 hours, versus medium without nepodin
Method: L6 myoblast cells were suspended at concentration of 12.5×10^4 cells/mL in a D-MEM medium with 5.5 mM of glucose concentration to which 10% v/v fetal bovine serum, 100 μg/mL of streptomycin, and 100 U/mL of penicillin G were added.
The cells were inoculated at the concentration 5×10^4 cells/well (0.4 mL/well) in 24 well multi-plate (NUNC Co., Inc.); then cultured in a 5% CO2 incubator at 37° C. for 11 days. The medium was exchanged every 3 days.
After 11 days, the culture medium was replaced with filter sterilized Krebs solution (Krebs-Henseleit buffer; pH 7.4, 141 mg/L of MgSO4, […] of KH2PO4, 350 mg/L of KCL, 6,900 mg/L of NaCl, 373 mg/L of CaCl2.2H2O, and 2,100 mg/L of NaHCO3) (KHH buffer) supplemented with 0.1% bovine serum albumin, 10 mM of Hepes, and […] of pyruvate sodium but without glucose to maintain the cells in the 5% CO2 incubator at 37° C. for 2 hours.
Next, each KHH buffer was prepared: only 11 mM glucose was added, or 11 mM of glucose and nepodin (10 μM, 20 μM, or 40 μM). […]
Glucose concentrations in the culture solution at the beginning and after 4 hours from the culture start were determined by using a microplate reader (Beckman Coulter, Inc. AD200) and a glucose determination kit (Glucose CII test Wako (Wako Pure Chemical Industries, Ltd.), Catalog number 439-90901). […]

[2] = system: AMPK (5′ adenosine monophosphate-activated protein kinase); assay: Phosphorylated AMPK in L6 myotube cells by western blotting; type: cell-based, rat; settings: nepodin 30 μM, up to 120 minutes
Method: The effect of nepodin administration was decided by determining the amount of a phospholylated AMPK (5′ adenosine monophosphate-activated protein kinase), which was important for glucose metabolism in L6 myotube cells, as an activation index.
L6 myoblast cells were suspended in D-MEM (5.5 mM of glucose concentration) supplemented with 10% v/v fetal bovine serum, 100 μg/mL of streptomycin, and 100 U/mL of penicillin G so as to become the cell concentration at 12.5×10^4 cells/well.
L6 myoblast cells were inoculated into a 6 cm diameter dish (FALCON Co., Inc.) (2 mL/well) so as to become the concentration at 5×10^5 cells/well, and cultured in the 5% CO2 incubator at 37° C. for 11 days. The medium was exchanged every 3 days. […]
The negative control samples were prepared by using the cytolytic buffer to be added to the cells cultured with the medium including DMSO, the solvent of nepodin, at the same amount as nepodin. The negative control sample and the samples were separated by using SDS-PAGE according to the conventional method, and were analyzed by using anti-phosphorylated AMPK antibody and anti-AMPK antibody by the western blotting.

[3] = system: db/db diabetes model mouse; assay: Fasting blood glucose of diabetes model mice; type: in vivo; settings: 4 hour fasting, 2 to 4 weeks after administration start, versus no nepodin
Method: Effect of nepodin was evaluated by using fasting blood glucose of model mice (db/db mouse) having diabetes II as an index.
Nepodin was suspended in 0.5% carboxymethylcellulose aqueous solution (Wako Pure Chemical Industries, Ltd.). Male mice of 5 week old, BKS. Cg-+Lerp^db/+Lerp^db/J mouse (db/db diabetes model mouse, hereinafter, it is referred to as “diabetes model mouse”) for a test group (nepodin administration group) were purchased from Charles River Laboratories Japan Inc. Prior to the test, they were maintained for 1 week under the condition of 12 h light/12 h dark at a room temperature approximately 25° C., feeding normal diet. It is considered that db/db mouse also becomes a model for a metabolic syndrome model, because it is obese and has higher levels of variety of lipid.
Heterozygous male mice of 5 week old, BKS. Cg-+Dock 7^m/+Lerp^db/J mouse (normal mouse) for a negative control group (without nepodin administration) were purchased from Charles River Japan Inc. Prior to the test, they were maintained as the same condition as those of the test group. […]
Blood samples were obtained from the tail vein of the mice after 4 hour fasting per week. The blood glucose level was measured by using Glucose CII test Wako (Wako Pure Chemical Industries, Ltd.)

[4] = Feed intake and body weight gain of diabetes model mice; type: in vivo, mouse; settings: for Weight gain / Feed intake: diabetes mice
Method: Nepodin was suspended in 0.5% carboxymethylcellulose aqueous solution (Wako Pure Chemical Industries, Ltd.). Male mice of 5 week old, BKS. Cg-+Lerp^db/+Lerp^db/J mouse (db/db diabetes model mouse, hereinafter, it is referred to as “diabetes model mouse”) for a test group (nepodin administration group) were purchased from Charles River Laboratories Japan Inc. Prior to the test, they were maintained for 1 week under the condition of 12 h light/12 h dark at a room temperature approximately 25° C., feeding normal diet. It is considered that db/db mouse also becomes a model for a metabolic syndrome model, because it is obese and has higher levels of variety of lipid. The test group mice were divided into 3 groups: C group (positive control group; n=10) with no nepodin administration; A group (n=6) to which nepodin was administered at the dose of 2 mg/kg/day or 10 mg/kg/day for 5 weeks; and B group (n=6). 0.5% carboxymethylcellulose aqueous solution without nepodin was administered to the negative control group (N group; n=6) and the positive control group (C group) under the same conditions as described above. Feeds and water are freely given to each group.

[5] = system: db/db diabetes model mouse; assay: Intraperitoneal glucose tolerance test (IPGTT) in diabetes model mice; type: in vivo
Method: Effect on glucose tolerance by nepodin administration was measured by using blood glucose level change after the intraperitoneal administration of nepodin to the diabetes model mice.
Intraperitoneal glucose tolerance test (IPGTT) was performed on the sixth week after nepodin administration start. At first, the mice of each group were fasted for 16 hours, and then, glucose was intraperitoneally administrated to each mouse at the dose of 2 g/kg.
Blood samples were obtained from the tail vain of each mouse at the time point of 0 min., 30 min., 60 min., 90 min., 120 min., and 180 min. after the glucose administration. Blood glucose level was determined by using Glucose CII Test Wako (Wako Pure Chemical Industries, Ltd.)

[6] = system: db/db diabetes model mouse; assay: HOMA-IR insulin resistance index in diabetes model mice; type: in vivo; settings: groups A and B (2 and 10 mg/kg/day) versus group C
Method: (§1) After the termination of the experiment shown in EXAMPLE 4, the blood samples were obtained from the abdominal aorta of the mice from each group under anesthesia, and they were centrifuged with 1,000×g at room temperature to obtain serum samples. After that, the mice of each group were killed by cervical dislocation to put out of the misery; then organs were excised to use the following experiments.
Serum insulin level of Lewi's insulin-mouse-T (Shibayagi Co., Ltd.) was determined by ELISA (measurement at the wavelengths of 450 nm and 620 nm), according to protocols written in its package insert.
HOMA-IR (Homeostasis model assessment-Insulin Resistance), which is an index of the insulin resistance, was calculated based on data on both blood glucose and serum insulin, by using following equation. HOMA-IR=(blood glucose×insulin level)/405 (1)
HOMA-IR values were obtained from both levels of serum blood glucose and serum insulin of the mice in group N (the normal mice), the administration groups A, B, and C. They were used to investigate for the change of the insulin resistant index.

[7] = system: db/db diabetes model mouse; assay: Liver and serum neutral lipid and cholesterol levels in diabetes model mice; type: in vivo
Description: as §1
Livers from the mice of each group were homogenized and total lipid was extracted by using Folch method. Both amounts of neutral lipid and cholesterol in the liver were determined by using LabAssat Tiglyceride (Wako Pure Chemical Industries, Ltd.) and LabAssay Cholesterol (Wako Pure Chemical Industries, Ltd.) Results are shown in FIGS. 7A and 7B.
The serum neutral lipid (triglyceride) level was determined by using LabAssay Triglyceride (Wako Pure Chemical Industries, Ltd.). The serum cholesterol level was determined by using LabAssay Cholesterol (Wako Pure Chemical Industries, Ltd.).

[8] = system: db/db diabetes model mouse; assay: Serum TBARS value (anti-oxidizing action) in diabetes model mice; type: in vivo; settings: groups A and B versus group C
Method: as §1
TBARS value, an index for anti-oxidizing action, was determined by using a TBARS Assay Kit (ZeptoMetrix Co., Inc.).

[9] = nepodin administration groups versus diabetes model group with no administration

Compound: CC(=O)c1c(C)cc2cccc(O)c2c1O [nepodin, 2-Acetyl-1,8-dihydroxy-3-methyl-napthalene]
- glucose intake by L6 myotube cells [1]: dose-dependently improved
- Phosphorylated AMPK in L6 myotube cells [2]: increased
- fasting blood glucose level [3]: significantly lower
- Weight gain ([4]; group A, nepodin 2 mg/kg/day): 18.7 ± 1.76 g/5 weeks
- Feed intake ([4]; group A, nepodin 2 mg/kg/day for 5 weeks): 5.26 ± 0.61 g/day
- Weight gain ([4]; group B, nepodin 10 mg/kg/day): 19.45 ± 2.68 g/5 weeks
- Feed intake ([4]; group B, nepodin 10 mg/kg/day for 5 weeks): 5.40 ± 0.50 g/day
- average amount of feed intake and body weight gain versus C group ([4]; diabetes model mice, A group and B group (2 or 10 mg/kg/day) versus no nepodin): no significant difference
- area under the curve (AUC) of blood glucose levels ([5]; B group (10 mg/kg), AUC of C group = 100%, p<0.01): significantly low
- increase of the blood glucose level after glucose load ([5]; B group, 10 mg/kg nepodin, sixth week, glucose 2 g/kg i.p. after 16 hours fasting): significantly suppressed
- HOMA-IR [6]: significantly lower
- cholesterol level in the liver ([7]; groups A and B versus group C): significantly lower
- neutral lipid level in the liver ([7]; groups A and B versus group C): significantly lower
- serum cholesterol level [7, 9]: significantly lower
- serum neutral lipid (triglyceride) level [7, 9]: significantly lower
- serum TBARS value [8]: significantly lower
